This note sets out measurements from ChEMBL document CHEMBL5120932, “Discovery and Optimization of Seven-Membered Lactam-Based Compounds to Phenocopy the Inhibition of the Aurora Kinase B” (ACS Med Chem Lett, 2022).

A short description of assay [1]: Induction of mitotic arrest in human RPE cells over expressing H2B-GFP-fused MYC assessed as increase in polyploidy at 40 uM measured after 24 to 72 hrs by fluorescence microscopy. It counts as functional. Particulars: time 24-72 hrs.
Assay [2] in a line: Induction of mitotic arrest in human RPE cells over expressing H2B-GFP-fused MYC assessed as minimum effective concentration for polyploidy measured after 24 to 72 hrs by fluorescence microscopy. It counts as functional. The following applies: time 24-72 hrs, read-out: MEC.
For assay [3], the system named is NCI-H23. The experiment in a line: Cytotoxicity against human NCI-H23 cells assessed as reduction in cell proliferation at 10 uM measured after 3 days by MTT assay. It is filed as functional, cell-based. Particulars: time 3.0 day. A general note: Tetrazolium assays rely on reduction of a dye to a coloured formazan, in cell work by metabolically active cells.
The test system of assay [4] is HCT-116. The experiment in a line: Cytotoxicity against human HCT-116 cells assessed as reduction in cell proliferation at 10 uM measured after 3 days by MTT assay. It counts as functional, cell-based. The following applies: time 3.0 day.
The test system of assay [5] is MDA-MB-231. Put plainly: Cytotoxicity against human MDA-MB-231 cells assessed as reduction in cell proliferation at 10 uM measured after 3 days by MTT assay. Particulars: time 3.0 day. It is filed as functional, cell-based.
The test system of assay [6] is NCI-N87. The experiment in a line: Cytotoxicity against human NCI-N87 cells assessed as reduction in cell proliferation at 10 uM measured after 3 days by MTT assay. Particulars: time 3.0 day. It is filed as functional, cell-based.
The test system of assay [7] is DU-145. Put plainly: Cytotoxicity against human DU-145 cells assessed as reduction in cell proliferation at 10 uM measured after 3 days by MTT assay. It is filed as functional, cell-based. The following applies: time 3.0 day.
In assay [8] the test system is NCI-H23. Put plainly: Cytotoxicity against human NCI-H23 cells assessed as reduction in cell viability measured after 6 days by MTT assay. Particulars: time 6.0 day. It counts as functional, cell-based.
Another assay concerns NCI-H460. Put plainly: Cytotoxicity against human NCI-H460 cells assessed as reduction in cell viability measured after 6 days by MTT assay. It is filed as functional, cell-based. Particulars: time 6.0 day.
The test system of the next assay is NCI-H596. The experiment in a line: Cytotoxicity against human NCI-H596 cells assessed as reduction in cell viability measured after 6 days by MTT assay. The following applies: time 6.0 day. It counts as functional, cell-based.
A further assay deals with Calu-6. Put plainly: Cytotoxicity against human Calu-6 cells assessed as reduction in cell viability measured after 6 days by MTT assay. It counts as functional, cell-based. The following applies: time 6.0 day.
A further assay has as its system A549. The experiment in a line: Cytotoxicity against human A549 cells assessed as reduction in cell viability measured after 6 days by MTT assay. It is filed as functional, cell-based. Particulars: time 6.0 day.
The test system of assay [9] is HCT-116. Put plainly: Cytotoxicity against human HCT-116 cells assessed as reduction in cell viability measured after 6 days by MTT assay. It is filed as functional, cell-based. The following applies: time 6.0 day.
In assay [10] the test system is MDA-MB-231. Put plainly: Cytotoxicity against human MDA-MB-231 cells assessed as reduction in cell viability measured after 6 days by MTT assay. It is filed as functional, cell-based. The following applies: time 6.0 day.
Assay [11] concerns NCI-N87. The experiment in a line: Cytotoxicity against human NCI-N87 cells assessed as reduction in cell viability measured after 6 days by MTT assay. It counts as functional, cell-based. Particulars: time 6.0 day.
Assay [12] concerns DU-145. The experiment in a line: Cytotoxicity against human DU-145 cells assessed as reduction in cell viability measured after 6 days by MTT assay. It is filed as functional, cell-based. The following applies: time 6.0 day.
Assay [13] addresses Aurora kinase B (Homo sapiens) (UniProt Q96GD4). Put plainly: Inhibition of AURKB in human RPE cells over expressing H2B-GFP-fused MYC assessed as reduction in phosphorylation at Ser10 residues at 200 nM using histone H3 as substrate measured after 6 hrs by immunofluorescence assay. It is filed as cell-based.

Activity calls are given as the source filed them. No cut-off for these calls is given here.

Sequence of Aurora kinase B (Homo sapiens) (Q96GD4 whole entry, the tested form may be a part): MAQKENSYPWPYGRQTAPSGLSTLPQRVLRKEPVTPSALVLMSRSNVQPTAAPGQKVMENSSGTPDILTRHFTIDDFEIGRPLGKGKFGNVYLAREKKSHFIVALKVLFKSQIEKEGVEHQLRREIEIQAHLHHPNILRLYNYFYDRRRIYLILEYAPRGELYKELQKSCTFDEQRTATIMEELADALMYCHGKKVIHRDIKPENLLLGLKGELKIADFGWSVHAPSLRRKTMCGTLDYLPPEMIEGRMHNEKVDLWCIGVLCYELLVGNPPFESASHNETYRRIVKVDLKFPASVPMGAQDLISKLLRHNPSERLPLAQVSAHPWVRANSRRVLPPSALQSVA

For `COC(=O)C1=C(O)c2ccccc2N(Cc2ccc(C(C)(C)C)cc2)C(=O)C1`, in assay [1], the Activity is listed as 5%. Also, in [2], the minimal effective concentration was determined as 40 µM.
Consider `COC(=O)C1=C(O)c2ccccc2N(Cc2cccc(C)c2)C(=O)C1`, for which the Activity in assay [1] is on record as 10%. Moreover, in assay [2], the minimal effective concentration came out at 40 µM.
In the case of `COC(=O)C1=C(O)c2ccccc2N(Cc2ccc(C)cc2)C(=O)C1`, the Activity in [1] is given as 10%. The minimal effective concentration in assay [2] turned out to be 0.625 µM. Moreover, the result with NCI-H23 [3], with HCT-116 [4], with MDA-MB-231 [5], in the assay on NCI-N87 [6] and in the assay on DU-145 [7] was Active.
For the compound `COc1cc(Nc2ncc3c(n2)-c2ccc(Cl)cc2C(c2c(F)cccc2OC)=NC3)ccc1C(=O)O`, the outcome in the assay on NCI-H23 [8], in the assay on NCI-H460, in the assay on NCI-H596, in the assay with Calu-6, in the assay with A549 and with HCT-116 [9] was Active. Moreover, the result in the assay with MDA-MB-231 [10], in the assay on NCI-N87 [11] and in the assay on DU-145 [12] was Active.
`COC(=O)C1=C(O)c2ccccc2N(Cc2ccc(C)c(Cl)c2)C(=O)C1`: the Activity in [1] was 100%. For the same compound, the minimal effective concentration in assay [2] amounted to 5 µM.
In the case of `COC(=O)C1=C(O)c2ccccc2N(Cc2ccc(C)c(F)c2)C(=O)C1`, in assay [1], the Activity is recorded as 30%. In assay [2], the minimal effective concentration turned out to be 0.019 µM. The outcome in the assay with NCI-H23 [3], in the assay on HCT-116 [4], with MDA-MB-231 [5], in the assay on NCI-N87 [6], in the assay with DU-145 [7] and in the assay on NCI-H23 [8] was Active. The outcome in the assay on NCI-H460, in the assay with NCI-H596, with Calu-6, with A549, with HCT-116 [9] and with MDA-MB-231 [10] was Active. The result in the assay with NCI-N87 [11] and in the assay on DU-145 [12] was Active.
Consider `COC(=O)C1=C(O)c2ccccc2N(Cc2ccc(C(F)(F)F)cc2)C(=O)C1`, for which the Activity in assay [1] stood at 30%. In addition, the minimal effective concentration in assay [2] was determined as 10 µM.
As to `Cc1cc(Nc2cc(N3CCN(C)CC3)nc(Sc3ccc(NC(=O)C4CC4)cc3)n2)n[nH]1`, the outcome in the assay with NCI-H23 [8], with NCI-H460, with NCI-H596, in the assay with Calu-6, in the assay on A549 and in the assay with HCT-116 [9] was Active. Moreover, the outcome in the assay with MDA-MB-231 [10], in the assay with NCI-N87 [11] and in the assay on DU-145 [12] was Active.
Turning to `COC(=O)C1=C(O)c2ccccc2N(Cc2ccc(C#N)cc2)C(=O)C1`, in [1], the Activity is 10%. The minimal effective concentration in assay [2] was 40 µM.
In the case of `COC(=O)C1=C(O)c2ccccc2N(Cc2ccc(C)c(C)c2)C(=O)C1`, in [1], the Activity came out at 40%. In assay [2], the minimal effective concentration worked out at 20 µM.
`COC(=O)C1=C(O)c2ccccc2N(Cc2ccc(C)cc2C)C(=O)C1`: the Activity in assay [1] is recorded as 100%. Besides, the minimal effective concentration in assay [2] amounted to 1.25 µM.
Turning to `COC(=O)C1=C(O)c2ccccc2N(Cc2ccc(OC)cc2)C(=O)C1`, the Activity in [1] came to 80%. Further, the minimal effective concentration in assay [2] stood at 0.156 µM. Further, the result in the assay on NCI-H23 [3], in the assay on HCT-116 [4], with MDA-MB-231 [5], in the assay on NCI-N87 [6], in the assay with DU-145 [7] and in the assay on NCI-H23 [8] was Active. Moreover, the result in the assay on NCI-H460, with NCI-H596, in the assay with Calu-6, in the assay on A549, in the assay with HCT-116 [9] and with MDA-MB-231 [10] was Active. Moreover, the outcome in the assay on NCI-N87 [11] and in the assay on DU-145 [12] was Active.
Regarding `COC(=O)C1=C(O)c2cc(F)ccc2N(Cc2ccc(C)c(F)c2)C(=O)C1`, the Activity in assay [1] was found to be 40%. Further, the minimal effective concentration in assay [2] is 0.078 µM.
For `COC(=O)C1=C(O)c2ccccc2N(Cc2cccc(F)c2)C(=O)C1`, in that order: 40% and 40 µM.
In the case of `COc1ccc2c(c1)[C@]1(C[C@H]1c1ccc3c(/C=C/c4ccc(CN5C[C@@H](C)O[C@@H](C)C5)cc4)n[nH]c3c1)C(=O)N2`, the outcome in the assay with NCI-H23 [8], in the assay with NCI-H460, with NCI-H596, with Calu-6, in the assay on A549 and with HCT-116 [9] was Active. For the same compound, the outcome in the assay with MDA-MB-231 [10], with NCI-N87 [11] and in the assay on DU-145 [12] was Active.
For the compound `COC(=O)C1=C(O)c2ccccc2N(Cc2ccc(C(C)C)cc2)C(=O)C1`, the Activity in assay [1] was 70%. The minimal effective concentration in [2] came to 20 µM.
With `COC(=O)C1=C(O)c2scc(C)c2N(Cc2ccc(C)c(F)c2)C(=O)C1`, the Activity in assay [1] is 100%. The minimal effective concentration in [2] is 0.312 µM. The outcome in the assay with NCI-H23 [3], in the assay with HCT-116 [4], in the assay on MDA-MB-231 [5], with NCI-N87 [6] and in the assay with DU-145 [7] was Active.
For `COC(=O)C1=C(O)c2ccccc2N(Cc2cccc(OC)c2)C(=O)C1`, the Activity in assay [1] came out at 20%. In assay [2], the minimal effective concentration came out at 20 µM.
With `CC[C@@H]1C(=O)N(C)c2cnc(Nc3ccc(C(=O)NC4CCN(C)CC4)cc3OC)nc2N1C1CCCC1`, the outcome in the assay with NCI-H23 [8], in the assay with NCI-H460, with NCI-H596, in the assay on Calu-6, in the assay on A549 and with HCT-116 [9] was Active. For the same compound, the result in the assay on MDA-MB-231 [10], with NCI-N87 [11] and with DU-145 [12] was Active.
In the case of `Cc1csc(-c2nnc(Nc3ccc(Oc4ncccc4-c4ccnc(N)n4)cc3)c3ccccc23)c1`, the outcome in the assay with NCI-H23 [8], with NCI-H460, in the assay with NCI-H596, in the assay on Calu-6, in the assay on A549 and in the assay with HCT-116 [9] was Active. Besides, the outcome in the assay on MDA-MB-231 [10], in the assay with NCI-N87 [11] and in the assay on DU-145 [12] was Active.
For `COC(=O)C1=C(O)c2ccccc2N(Cc2ccccc2)C(=O)C1`, the Activity in assay [1] is 50%. Besides, in assay [2], the minimal effective concentration is 40 µM.
With `CCN(CCO)CCCOc1ccc2c(Nc3cc(CC(=O)Nc4cccc(F)c4)[nH]n3)ncnc2c1`, in assay [13], the inhibition entry was “Active”.
As to `COC(=O)C1=C(O)c2cc(OC)c(OC)cc2N(Cc2ccc(C)c(F)c2)C(=O)C1`, the Activity in [1] came out at 90%. Further, the minimal effective concentration in [2] came to 0.312 µM.
On to `CCc1ccc(CN2C(=O)CC(C(=O)OC)=C(O)c3ccccc32)cc1`, for which the Activity in assay [1] is recorded as 10%. In assay [2], the minimal effective concentration was 0.078 µM. The outcome in the assay on NCI-H23 [3], with MDA-MB-231 [5], in the assay with NCI-N87 [6], in the assay with DU-145 [7], in the assay with NCI-H23 [8] and in the assay on NCI-H460 was Active. The result with NCI-H596, with Calu-6, with A549, in the assay on HCT-116 [9], in the assay on MDA-MB-231 [10] and in the assay on NCI-N87 [11] was Active. Further, in the assay with DU-145 [12], the outcome was Active.
For `COC(=O)C1=C(O)c2ccccc2N(Cc2ccc(F)cc2)C(=O)C1`, in [1], the Activity amounted to 50%. In addition, in assay [2], the minimal effective concentration is 40 µM.
